Assay results as given in US20210395327A1, “Growth Hormone-Releasing Hormone Antagonists and Uses Thereof” (United States Government As Represented By The Department …, priority 2019, published 2021).
“Also recorded” adds a separate entry of the source. Non-standard residues stand in square brackets, D forms with d. Residues, ends and D or L forms follow the SMILES beside them. *: point of attachment. Phe(F5) = N[C@@H](Cc1c(F)c(F)c(F)c(F)c1F)C(=O)O; hArg = N=C(N)NCCCC[C@H](N)C(=O)O; 12Ado = NCCCCCCCCCCCC(=O)O; Nle = CCCC[C@H](N)C(=O)O; Orn = NCCC[C@H](N)C(=O)O; Abu = CC[C@H](N)C(=O)O; PhAc = O=C(Cc1ccccc1)*

Experiments:
[1] = tested on: bleomycin-induced lung infiltrates; assay: Bleomycin mouse model, micro-CT of lungs; type: in vivo, C57Bl/6J mice; details: bleomycin plus MIA-602 vs vehicle
Protocol: Bleomycin and GHRH-R antagonist treatment. Mice were treated with 0.8 units of bleomycin (Bleomycin for Injection USP, Hospira, Lake Forest, Ill.) intraperitoneally (IP) on days 1, 3, 7, 10, 14 and 21 (Collins S, Chan-Li Y, Oh M, Vigeland C, Limjunyawong N, Mitzner W, Powell J D, Horton M R (2016). JCI Insight 1(4):1-13). Mice (randomly assigned) were simultaneously treated subcutaneously (sc) with MIA-602 (5 μg/day) or its vehicle (100 μL/day). MIA-602 was dissolved in DMSO (ACS grade; Sigma-Aldrich) and diluted 1:500 in normal saline for daily sc injection on days 0-21.
Tissue preparations. Mice were killed by CO2 inhalation before any treatment, or on days 14 or 28 for micro-CT scans of lungs and harvesting of lung tissue (Vande Vel de G, Poelmans J, De Langhe E, Hillen A, Vanoirbeek J, Himmelreich U, Lories R (2016). Dis Model Mech 9:91). The right mainstem bronchus was ligated and the right lung removed and frozen at −80° C. for hydroxyproline (HP) assays. The left lung was filled with 10% buffered formalin at […] cm H2O pressure, the bronchus ligated, and the lung fixed in formalin. Fixed lungs were embedded in wax and 5 μm sections stained with hematoxylin and eosin (H&E) or Masson's trichrome stain.
Micro-CT. Mice in each group were assessed by micro-CT scans (Bruker SkyScan 1176 Low Dose Micro-CT, Knotich, Belgium) of the lungs after CO2 inhalation. […]

[2] = tested on: RT4 urothelial cancer cells; assay: In vitro cell viability, RT4; type: cell-based, human; details: antagonist 5 μM for 72 h, cell proliferation assay; MIA602 = 1
Protocol: The inhibitory effects of the various synthesized GHRH antagonists were tested in cell proliferation assays in various human cancer cell lines including stomach cancer (KATOIII, N87), colon cancer (HT-29), urothelial cancer (J82, RT4), pancreatic cancer (PANC-1, CFPAC-1), prostatic cancer (PC3), breast cancer (MX-1, HCC1806), ovarian cancer (SK-OV-3, OVCAR-3) and lung cancer (HCC827, H460).
Cell culture. Human cancer cell lines including pancreatic (PANC-1 and CFPAC-1), lung (HCC827 and H460), stomach (NCI-N87 and KATOIII), urothelial (J82, RT4), prostatic (PC3), breast (MX-1 and HCC 1806), colorectal (HT-29), and ovarian (SK-OV-3 and OVCAR-3) were obtained from the American Type Culture Collection (ATCC) and cultured at 37° C. in a humidified 95% air/5% CO2 atmosphere in the medium recommended by ATCC.
In vitro cell viability. Cell viability was analyzed as follows: cancer cells including pancreatic (PANC-1 and CFPAC-1), lung (HCC827 and H460), stomach (NCI-N87 and KATOIII), urothelial (J82, RT4), prostatic (PC3) and breast (MX-1 and HCC 1806), colorectal (HT-29) and ovarian (SK-OV-3 and OVCAR-3) were grown on 96 well plates to ˜60% confluence, the cells were starved for 24 h in culture medium containing 0.5% FBS. Cells were then treated with GHRH antagonists MIA602 AVR compounds at concentrations of 1, 2.5 or 5 μM, or vehicle (0.1% DMSO) in quintuplicates for 72 hours. The medium was replaced every 48 hours. Cell viability was measured using CellTiter 96 aqueous one solution kit (Promega). Inhibitory effects of tested AVR compounds in comparison to that of MIA602 are presented as inhibitory potency.
Inhibitory effects of selected AVR compounds in comparison to that of MIA602 are presented as inhibitory potency (e.g., percentage of inhibition). […] The cell lines tested including lung cancer HCC827 (FIG. 2A), pancreatic cancer CFPAC-1 (FIG. 2B), stomach cancer N87 (FIG. 2C), colon cancer HT-29 (FIG. 2D), breast cancers MX-1 and HCC1806 (FIGS. 2 E, F). […]

[3] = tested on: mouse lung fibroblasts (Mlg 2908); assay: Cellular respiration, Seahorse XF Cell Mito Stress Test; type: cell-based
Protocol: (§1) Lung fibroblasts. Newborn mouse lung fibroblasts (Mlg 2908) were obtained from the American Type Culture Collection, Manassas, Va. and cultured in Eagle's minimal essential medium. Cells were grown in 6-well plates before incubation with 1 or 5 μM MIA-602 or vehicle, RNA isolation, and oxygen consumption measurements.
Cellular respiration. The effects of MIA-602 on mouse lung fibroblast oxygen consumption was measured using the Agilent Seahorse XF Cell Mito Stress Test (Agilent Technologies, Santa Clara, Calif.) (Divakaruni A, Paradyse A, Ferrick D, Murphy A, Jastroch M (2014). Methods in Enzymology 547:309-354). Fibroblasts were incubated with vehicle, 1 or 5 μM MIA-602 for 24 hours before measurement of oxygen consumption. One day before assay 80,000 fibroblasts were seeded into Seahorse 24-well plates (n=6 wells per condition). Basal respiration was established and oligomycin, FCCP and rotenone plus antimycin A were added sequentially to measure ATP production, uncoupled respiration; and, non-mitochondrial oxygen consumption (Wangpaichitr, Wu C, Li Y, Nguyen D, Kandemir H, Shah S, Chen S, Feun L, Prince J, Kuo M, Savaraj N (2017). Oncotarget 8(30):49275-49292).

[4] = tested on: gene expression in normal mouse lung fibroblasts; assay: RNAseq of cultured lung fibroblasts; type: cell-based; details: 1 and 5 μM MIA-602, not exposed to bleomycin
Protocol: as §1
RNA was extracted from cultured fibroblasts using a Direct-zol RNA MicroPrep kit (R2060; Zymo Research, Irvine, Calif.). Cells were washed with PBS and lysed in TRIreagent™, then purified using Direct-zol RNA columns. DNase I treatment was done in columns and RNA eluted in DNase/Rnase-free water.
RNAseq and Pathway analyses. At least 10 ng of total RNA was used as input for the KAPA RNA HyperPrep Kit with RiboErase (HMR) to create ribosomal RNA-depleted sequencing libraries, including sample indexing, to allow for multiplexing. Cluster generation and sequencing was done on the Illumina cBOT and HiSeq 3000 using reagents provided by Illumina, finally generating >32 million single-end 100 base reads per sample.

[5] = tested on: PAK1-STAT3/NF-κB in gastric cancer cells; details: Gan et al. 2016; cited from earlier work
[6] = tested on: cellular levels of oxidant stress; details: Barbutis and Schally 2008; cited from earlier work

CCCC[C@H](NC(=O)[C@@H](NC(=O)[C@H](CC(=O)O)NC(=O)[C@H](CCC(N)=O)NC(=O)[C@H](CC(C)C)NC(=O)[C@H](CC(C)C)NC(=O)[C@H](CCCN)NC(=O)[C@H](Cc1c[nH]cn1)NC(=O)[C@H](C)NC(=O)[C@H](CO)NC(=O)[C@H](CC(C)C)NC(=O)[C@H](CCC(N)=O)NC(=O)[C@H](CC)NC(=O)[C@H](CC(C)C)NC(=O)[C@@H](NC(=O)[C@H](CCCN)NC(=O)[C@H](Cc1c[nH]cn1)NC(=O)[C@H](Cc1ccc(OC)cc1)NC(=O)[C@H](CCCCNC(=N)N)NC(=O)[C@H](C)NC(=O)[C@@H](NC(=O)[C@H](Cc1c(F)c(F)c(F)c(F)c1F)NC(=O)[C@@H](NC(=O)[C@H](C)NC(=O)[C@H](CC(=O)O)NC(=O)[C@@H](CCCNC(=N)N)NC(=O)[C@H](Cc1ccc(O)cc1)NC(=O)CCCCCCCCCCCNC(=O)Cc1ccccc1)[C@@H](C)CC)[C@@H](C)O)C(C)C)[C@@H](C)CC)C(=O)N[C@H](CCCNC(=N)N)C(=O)N[C@@H](CCCCNC(=N)N)C(N)=O [MIA-602, PhAC-Ada, Tyr D-Arg, Asp, Ala, Ile, 5FPhe, Thr, Ala, Har, Tyr(Me), His, Orn, Val, Leu, Abu, Gin, Leu, Ser, Ala, His, Om, Leu, Leu, Gin, Asp, Ile; Nle, D-Arg, Har NH2, reference compound] ({PhAc-12Ado}-Y[dR]DAI[Phe(F5)]TA[hArg]Y(Me)H[Orn]VL[Abu]QLSAH[Orn]LLQDI[Nle][dR][hArg]-NH2)
infiltrative densities in lungs, micro-CT (in words) [1]: less prominent infiltrative densities | relative inhibitory potency in comparison to MIA-602, Urothelial RT4 [2]: 1 | basal respiration / basal oxygen consumption (in words) ([3]; 5 μM for 24 hours, vs vehicle): increased | maximal, uncoupled respiration (after FCCP) (in words) ([3]; 5 μM for 24 hours, vs vehicle): increased | spare respiratory capacity (in words) ([3]; 5 μM for 24 hours, vs vehicle): increased | non-mitochondrial respiration (after antimycin A and rotenone) (in words) ([3]; 1 and 5 μM for 24 hours): appeared to increase | fibroblast gene expression, RNA-seq (in words) [4]: significant downregulation of genes involved in collagen fibril organization, cell-matrix adhesion and elastic fiber assembly | signaling pathways in gastric cancer cells (in words) [5]: downregulates p21 activated kinase and STAT3 and NFκB; also recorded: inhibits signaling pathways, including PAK1-STAT3/NF-κB | cellular levels of oxidant stress (in words) [6]: decreased
